In data set [1] the test system is Aspergillus niger and Aspergillus flavus. In words: Antifungal activity. Format: cell-based. The conditions noted are these: in words; dose not given. On the procedure:
Sulfur compounds were tested for antifungal activity against pure cultures of Aspergillus niger and Aspergillus flavus supplied by Ward's Natural Science Ltd (St. Catharines, Ontario, Canada). They were maintained on Sabouraud Dextrose Agar.
For the test, 6 agar plugs (5 mm diameter) were cut from a 5-8 day old colony and homogenized in distilled, sterilized water (2 ml). A portion of this suspension (0.5 ml) was transferred aseptically to a Petri plate with Sabouraud Dextrose Agar (15 ml) and spread evenly over the entire surface. Each plate was supplied with four evenly spaced paper disks (7 mm, Whatman Number 1 filter paper) containing the test compound (0, 25, 50 and 100 μg respectively). Each test compound was applied to the disks as a solution (50 mg compound/10 ml acetone). Control disks were treated with neat acetone (20 μl). Test plates with fungal homogenates and disks were incubated at 18-20° C. for 2 days. For each test four replicate plates were used. The diameter of the clear zone surrounding the disk was taken as the indicator of antifungal activity.

The subject of data set [2] is leukemic cells. In words: Cell cycle and apoptosis by fixed PI and TUNEL. The conditions noted are these: in words. The data set is classed as cell-based, human. On the procedure: Adherent cell lines were plated at 35×10^4 cells/60 cm^2 dish the day before exposure to compound. Suspension cells were seeded at 25×10^4 cells/mL in a 6 well dish (Falcon) the day of exposure to compound. Mononucleated, T-cell depleted normal bone marrow cells were seeded at 50×10^4 cells/mL in a 6 well dish the day of exposure to compound. Cells were exposed to solvent control or approximate MTT50 and MTT30 concentrations of the compound. After 48 h of exposure to the compound, cells were harvested, fixed in 80% ethanol for 1 h on ice and labeled with 50 μg/mL propidium iodide (Sigma). Approximately 10^6 cells were analyzed using a XL-MCL flow cytometer (Coulter Corporation, Miami, Fla.) and a FACScalibar cytometer (Becton Dickinson, San Jose, Calif.). Profiles shown are a representative.
Adherent cell lines were plated at 35×10^4 cells/60 cm^2 dish the day before exposure to compound. Suspension cells were seeded at 25×10^4 cells/mL in a 6 well dish (Falcon) the day of exposure to compound. Mononucleated, T-cell depleted normal bone marrow cells were seeded at 50×10^4 cells/mL in a 6 well dish the day of exposure to compound. Cells were exposed to solvent control or approximate MTT50 and MTT30 concentrations of the compound. After 48 h of exposure to the compound, cells were harvested and fixed with a final concentration of 4% formaldehyde. Fixed cells were stored at −20° C. in 70% ethanol for no more than 5 days. Approximately 10^5 cells were pelleted and labeled with 0.02 mM Biotin-dUTP and 12.5 U TdT enzyme in a 1× reaction buffer (200 mM potassium cacodylate, 25 mM Tris-HCl, 25 μg/mL bovine serum albumin, pH 6.6), 2.5 mM CoCl2 and 0.01 mM dTTP (Roche Molecular Biochemicals, Laval, QC, Canada) for 45 min at 37° C. Samples were washed and incubated in 200 μL of 1:1000 fluorescein isothiocyanate (FITC)-conjugated avidin (Sigma) in 4×SSC, 5% skim milk powder and 0.05% Tween-20 (Sigma). Following 1 h of mixing at room temperature, the samples were washed and resuspended in 500 μL of D-PBS containing 2.5 μg/mL DNase-free RNase (Boehringer Mannheim) and 10 μg/mL PI. Following a 30 min incubation at room temperature, cells were analyzed using a XL-MCL flow cytometer (Coulter Corporation, Miami, Fla.) and a FACScalibar cytometer (Becton Dickinson, San Jose, Calif.). Profiles shown are representative of one experiment.

In data set [3] the test system is leukemic cells. In words: Trypan blue exclusion in combination with MTT activity. The data set is classed as cell-based, human. Particulars: in words. On the procedure: Adherent cells were seeded at 67×10^3 cells/mL in a 96 well plate (Falcon, Mississauga, Ontario) the day prior to exposure to compound. Suspension cells were seeded at 27×10^4 cells/mL in a 96 well plate the day of exposure to compound. Mononucleated, T-cell depleted normal bone marrow cells were seeded at 67×10^4 cells/mL in a 96 well plate the day of exposure to compound. Compounds and solvent control were added to cells and assayed in triplicate or sextuplet. Following 48 h of incubation at 37° C. with 5% CO2, 40 μL of a 5 mg/mL solution of 3-[4,5-dimethylthiazol-2-yl]-2,5-diphenyltetrazolium bromide (MTT) substrate (Sigma) in Dulbecco's phosphate-buffered saline (D-PBS) was added. After 4 h of incubation at 37° C. with 5% CO2, the resulting violet formazan precipitate was solubilized by the addition of 80 μL of a 0.01 M HCI, 10% sodium dodecyl sulfate (SDS; Sigma) solution overnight at 37° C. with 5% CO2. The plates were then analyzed using the BioRad Benchmark Microplate Reader (BioRad Laboratories, Hercules, Calif.) at 570 nm to determine the optical density of the samples. MTT data was analyzed using Prism 3.0 (GraphPad Software, Inc., San Diego, Calif.) by the Chou-Talalay method. MTT graphs shown are a representative experiment.
Leukemic cells were seeded in a 24-well plate (Nunc, Naperville, Ill.) at 25×10^4 cells/mL. Cells were then exposed in triplicate to solvent control or the approximate MTT50 concentration of compounds B, C, F, G or H at 10 μg/mL, or I at 5 μg/mL. The final solvent volume was 2.4 μL/mL of media for trypan blue exclusion assay. The compound was replenished after 48 h of treatment. Cell counts were evaluated using a 1:1 dilution of cell suspension in trypan blue (Gibco-BRL, Mississauga, Ontario, Canada). Viable and nonviable cells were counted using a hemocytometer. Cells which excluded trypan blue were counted as viable whereas stained cells were counted as nonviable. Trypan blue exclusion graphs shown are a representative experiment.
Leukemic cells were seeded in a 24-well plate (Nunc, Naperville, Ill.) at 25×10^4 cells/mL. Cells were then exposed in triplicate to solvent control or the approximate MTT50 concentration of compounds F (10 μg/mL), G (10 μg/mL) or 1 (5 μg/mL). The final solvent volume was 2.4 μL/mL of media for trypan blue exclusion assay. The compound was replenished after 48 h of treatment. Cell counts were evaluated using a 1:1 dilution of cell suspension in trypan blue (Gibco-BRL, Mississauga, Ontario, Canada). Viable and nonviable cells were counted using a hemocytometer. Cells which excluded trypan blue were counted as viable whereas stained cells were counted as nonviable. Trypan blue exclusion graphs shown are a representative experiment.

SMILES strings stand for the structures.

For the compound `CS(C)(=O)=O` [Compound A, dimethyl sulfone], the Antifungal activity entry in data set [1] is reported as “do not possess antiproliferative activity on either fungal or mammalian cells”.
Consider `CSSCS(=O)(=O)c1ccc(C)cc1` [Compound C, α-p-toluenesulfonyl dimethyl disulphide], for which the “Cell cycle effect / apoptosis of leukemic cells (fixed PI and TUNEL)” value (“Cell cycle effect / apoptosis” below) in the data set on leukemic cells [2] is listed as “undergo apoptosis in all the phases of the cell cycle”. The Antifungal activity result in data set [1] was “possess antifungal and anti-mammalian cell activity”. For the same compound, in the data set with leukemic cells [3], the “Cytotoxicity to the leukemic cells (trypan blue exclusion with MTT activity)” value (shortened to “Cytotoxicity to the leukemic cells”) is “cytotoxic to the leukemic cells in a dose-dependent manner”.
In the case of `CSSCOC(C)=O` [I, 2,3-dithiabutyl acetate], the “Cell cycle effect / apoptosis” value in the data set on leukemic cells [2] is “undergo apoptosis in all the phases of the cell cycle”. Also, the Antifungal activity result in data set [1] was “possess antifungal and anti-mammalian cell activity”. Also, the “Cytotoxicity to the leukemic cells” value in the data set with leukemic cells [3] is “cytotoxic to the leukemic cells in a dose-dependent manner”.
As to `CCC(=O)OCSSc1ccccc1` [Compound Q, 1-phenyl-1,2-dithiapropyl propionate], the Antifungal activity entry in data set [1] was “potent antifungal compound”.
For the compound `CS(=O)(=O)CSSc1ccccc1` [E, 5-phenyl-2,4,5-trithiapentane 2,2-dioxide], the “Cell cycle effect / apoptosis” value in the data set on leukemic cells [2] was “undergo apoptosis in all the phases of the cell cycle”. Also, the Antifungal activity result in data set [1] is “possess antifungal and anti-mammalian cell activity”. Also, in the data set with leukemic cells [3], the “Cytotoxicity to the leukemic cells” value is “cytotoxic to the leukemic cells in a dose-dependent manner”.
On to `COC(=O)CSSC` [H, methyl 3,4-dithiopentanoate], for which the “Cell cycle effect / apoptosis” value in the data set on leukemic cells [2] is “accumulation of leukemic cells in the G2/M phase of the cell cycle prior to the cells undergoing apoptosis”. In addition, in data set [1], the Antifungal activity entry is “do not possess antifungal activity”. Moreover, the “Cytotoxicity to the leukemic cells” value in the data set with leukemic cells [3] was “cytotoxic to the leukemic cells in a dose-dependent manner”.
For `CS(=O)(=O)CSCS(C)(=O)=O` [G, 2,4,6-trithiaheptane 2,2,6,6-tetraoxide], in data set [1], the Antifungal activity result is reported as “do not possess antiproliferative activity on either fungal or mammalian cells”.
For the compound `CSSCCS(C)(=O)=O` [F, 2,3,6-trithiaheptane 6,6,-dioxide], the “Cell cycle effect / apoptosis” value in the data set on leukemic cells [2] is reported as “accumulation of leukemic cells in the G2/M phase of the cell cycle prior to the cells undergoing apoptosis”. Moreover, the Antifungal activity result in data set [1] is given as “do not possess antifungal activity”. Also, the “Cytotoxicity to the leukemic cells” value in the data set with leukemic cells [3] was “cytotoxic to the leukemic cells in a dose-dependent manner”.
For the compound `CSCSCS(C)(=O)=O` [B], the Antifungal activity entry in data set [1] is on record as “do not possess antiproliferative activity on either fungal or mammalian cells”.
As to `c1ccc(SSc2ccccc2)cc1` [D, diphenyl disulphide], the “Cell cycle effect / apoptosis” value in the data set on leukemic cells [2] is “undergo apoptosis in all the phases of the cell cycle”. Besides, the Antifungal activity entry in data set [1] was “do not possess antifungal activity”. For the same compound, the “Cytotoxicity to the leukemic cells” value in the data set with leukemic cells [3] was “cytotoxic to the leukemic cells in a dose-dependent manner”.

For the origin of these results see patent US20030220524A1, “Sulfur containing compounds” (priority 2000, published 2003).
